# Measured values reported in patent US20230278972A1, “SUBSTITUTED HALOALKYL SULFONANILIDE HERBICIDES” (FMC Corporation, priority 2020, published 2023).
# Experiments:
# Format in all cases: in vivo
# [1] = test system: Ryegrass, Italian (Italian ryegrass, Lolium multiflorum); experiment: Test A postemergence, Ryegrass, Italian; settings: Postemergence
# Method in brief: (§1)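 Seeds are sown in loam mixed with sand and sprayed on the soil surface right after planting for the preemergence test. Postemergence pots are sprayed once seedlings reach 2 to 10 cm at the one- to two-leaf stage. The same surfactant-containing, non-phytotoxic solvent formulation serves both.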
# [2] = test system: galium (catchweed bedstraw, Galium aparine); experiment: Test A postemergence, galium; settings: Postemergence
# Method in brief: (§2)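 Greenhouse pot test in a loam–sand blend; compounds delivered in a non-phytotoxic solvent carrying a surfactant, applied either as a directed spray to soil at seeding or over seedlings 2 to 10 cm high with one to two leaves.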
# [3] = test system: Ryegrass, Italian (Italian ryegrass, Lolium multiflorum); experiment: Test A preemergence, Ryegrass, Italian; settings: Preemergence; for Plant response rating, Ryegrass, Italian: visual injury, 0 to 100 scale (0 no effect, 100 complete control), approx. 10 days; for Ryegrass, Italian plant response rating: visual injury on 0 to 100 scale (0 no effect, 100 complete control), approximately 10 days
# Method in brief: as §1
# [4] = test system: wheat (Triticum aestivum); experiment: Test A postemergence, wheat; settings: Postemergence
# Method in brief: as §2
# [5] = test system: barnyardgrass (Echinochloa crus-galli); experiment: Test A preemergence, barnyardgrass; settings: Preemergence; for Plant response rating, Barnyardgrass: visual injury, 0 to 100 scale (0 no effect, 100 complete control), approx. 10 days; for Barnyardgrass plant response rating: visual injury on 0 to 100 scale (0 no effect, 100 complete control), approximately 10 days
# Method in brief: as §1
# corn (Zea mays) = experiment: Test A postemergence, corn; settings: Postemergence
# Method in brief: as §1
# [6] = test system: ragweed (common ragweed, Ambrosia artemisiifolia); experiment: Test A postemergence, ragweed; settings: Postemergence
# Method in brief: as §1
# [7] = test system: barnyardgrass (Echinochloa crus-galli); experiment: Test A postemergence, barnyardgrass; settings: Postemergence
# Method in brief: as §2
# [8] = test system: Foxtail, Giant (giant foxtail, Setaria faberi); experiment: Test A postemergence, Foxtail, Giant; settings: Postemergence
# Method in brief: as §1
# [9] = test system: ragweed (common ragweed, Ambrosia artemisiifolia); experiment: Test A preemergence, ragweed; settings: Preemergence; for Plant response rating, Ragweed: visual injury, 0 to 100 scale (0 no effect, 100 complete control), approx. 10 days; for Ragweed plant response rating: visual injury on 0 to 100 scale (0 no effect, 100 complete control), approximately 10 days
# Method in brief: as §1
# kochia (Bassia scoparia) [10] = experiment: Test A preemergence, kochia; settings: Preemergence; for Plant response rating, Kochia: visual injury, 0 to 100 scale (0 no effect, 100 complete control), approx. 10 days; for Kochia plant response rating: visual injury on 0 to 100 scale (0 no effect, 100 complete control), approximately 10 days
# Method in brief: as §1
# [11] = test system: pigweed (Amaranthus retroflexus); experiment: Test A preemergence, pigweed; settings: for Plant response rating, Pigweed: visual injury, 0 to 100 scale (0 no effect, 100 complete control), approx. 10 days; for Pigweed plant response rating: visual injury on 0 to 100 scale (0 no effect, 100 complete control), approximately 10 days
# Method in brief: as §2
# kochia (Bassia scoparia) [12] = experiment: Test A postemergence, kochia; settings: Postemergence
# Method in brief: as §1
# [13] = test system: pigweed (Amaranthus retroflexus); experiment: Test A postemergence, pigweed; settings: Postemergence
# Method in brief: as §1
# [14] = test system: blackgrass (Alopecurus myosuroides); experiment: Test A postemergence, blackgrass; settings: Postemergence
# Method in brief: as §1
# [15] = test system: Foxtail, Giant (giant foxtail, Setaria faberi); experiment: Test A preemergence, Foxtail, Giant; settings: Preemergence; for Plant response rating, Foxtail, Giant: visual injury, 0 to 100 scale (0 no effect, 100 complete control), approx. 10 days; for Foxtail, Giant plant response rating: visual injury on 0 to 100 scale (0 no effect, 100 complete control), approximately 10 days
# Method in brief: as §1
# [16] = 125 g ai/ha, 0 to 100 scale (0 no effect, 100 complete control)
# [17] = 500 g ai/ha, visual injury approx. 10 days, 0 to 100 scale (0 no effect, 100 complete control)
# [18] = 31 g ai/ha, visual injury on 0 to 100 scale (0 no effect, 100 complete control), approx. 10 days
# [19] = 31 g ai/ha, 0 to 100 scale (0 no effect, 100 complete control)
# [20] = 125 g ai/ha, visual injury approx. 10 days, 0 to 100 scale (0 no effect, 100 complete control)
smiles,measurement,setting,value
Cc1cc(Cl)c(C(=O)N2CCOCC2)cc1N(S(=O)(=O)C(F)(F)F)S(=O)(=O)C(F)(F)F [Compound 250],"Plant response rating, Ryegrass, Italian",[1]; [16],0
same,"Plant response rating, Ryegrass, Italian",[1]; [17],20
same,"Plant response rating, Galium",[2]; [16],50
same,"Plant response rating, Galium",[2]; [17],80
same,"Plant response rating, Ryegrass, Italian",[3]; 125 g ai/ha,60
same,"Ryegrass, Italian plant response rating",[3]; 500 g ai/ha,90
same,"Plant response rating, Wheat",[4]; [16],20
same,"Plant response rating, Wheat",[4]; [17],30
same,"Plant response rating, Barnyardgrass",[5]; 125 g ai/ha,40
same,Barnyardgrass plant response rating,[5]; 500 g ai/ha,90
same,"Plant response rating, Corn",corn (Zea mays); [16],0
same,"Plant response rating, Corn",corn (Zea mays); [17],30
same,"Plant response rating, Ragweed",[6]; [16],80
same,"Plant response rating, Ragweed",[6]; [17],90
same,"Plant response rating, Barnyardgrass",[7]; [16],20
same,"Plant response rating, Barnyardgrass",[7]; [17],40
same,"Plant response rating, Foxtail, Giant",[8]; [16],0
same,"Plant response rating, Foxtail, Giant",[8]; [17],10
same,"Plant response rating, Ragweed",[9]; 125 g ai/ha,80
same,Ragweed plant response rating,[9]; 500 g ai/ha,90
same,"Plant response rating, Kochia",kochia (Bassia scoparia) [10]; 125 g ai/ha,80
same,Kochia plant response rating,kochia (Bassia scoparia) [10]; 500 g ai/ha,100
same,"Plant response rating, Pigweed",[11]; 125 g ai/ha,100
same,Pigweed plant response rating,[11]; 500 g ai/ha,100
same,"Plant response rating, Kochia",kochia (Bassia scoparia) [12]; [16],70
same,"Plant response rating, Kochia",kochia (Bassia scoparia) [12]; [17],90
same,"Plant response rating, Pigweed",[13]; [16],80
same,"Plant response rating, Pigweed",[13]; [17],90
same,"Plant response rating, Blackgrass",[14]; [16],0
same,"Plant response rating, Blackgrass",[14]; [17],50
same,"Plant response rating, Foxtail, Giant",[15]; 125 g ai/ha,90
same,"Foxtail, Giant plant response rating",[15]; 500 g ai/ha,100
Cc1cc(Cl)c(NS(=O)(=O)C(F)(F)F)cc1C(=O)N1CCOCC1(C)C [Compound 153],"Plant response rating, Ryegrass, Italian",[1]; [18],30
same,"Plant response rating, Ryegrass, Italian",[1]; [16],80
same,"Plant response rating, Galium",[2]; [18],60
same,"Plant response rating, Galium",[2]; [16],70
same,"Plant response rating, Ryegrass, Italian",[3]; 31 g ai/ha,30
same,"Ryegrass, Italian plant response rating",[3]; 125 g ai/ha,70
same,"Plant response rating, Wheat",[4]; [18],0
same,"Plant response rating, Wheat",[4]; [16],30
same,"Plant response rating, Barnyardgrass",[5]; 31 g ai/ha,0
same,Barnyardgrass plant response rating,[5]; 125 g ai/ha,70
same,"Plant response rating, Corn",corn (Zea mays); [18],0
same,"Plant response rating, Corn",corn (Zea mays); [16],20
same,"Plant response rating, Ragweed",[6]; [18],30
same,"Plant response rating, Ragweed",[6]; [16],70
same,"Plant response rating, Barnyardgrass",[7]; [18],10
same,"Plant response rating, Barnyardgrass",[7]; [16],50
same,"Plant response rating, Foxtail, Giant",[8]; [18],10
same,"Plant response rating, Foxtail, Giant",[8]; [16],20
same,"Plant response rating, Ragweed",[9]; 31 g ai/ha,40
same,Ragweed plant response rating,[9]; 125 g ai/ha,60
same,"Plant response rating, Kochia",kochia (Bassia scoparia) [10]; 31 g ai/ha,60
same,Kochia plant response rating,kochia (Bassia scoparia) [10]; 125 g ai/ha,80
same,"Plant response rating, Pigweed",[11]; 31 g ai/ha,80
same,Pigweed plant response rating,[11]; 125 g ai/ha,90
same,"Plant response rating, Kochia",kochia (Bassia scoparia) [12]; [18],0
same,"Plant response rating, Kochia",kochia (Bassia scoparia) [12]; [16],10
same,"Plant response rating, Pigweed",[13]; [18],0
same,"Plant response rating, Pigweed",[13]; [16],30
same,"Plant response rating, Blackgrass",[14]; [18],0
same,"Plant response rating, Blackgrass",[14]; [16],50
same,"Plant response rating, Foxtail, Giant",[15]; 31 g ai/ha,40
same,"Foxtail, Giant plant response rating",[15]; 125 g ai/ha,90
CO[C@@H]1CCCN(C(=O)c2cc(NS(=O)(=O)C(F)(F)F)c(C)cc2C)C1 [Compound 94],"Plant response rating, Ryegrass, Italian",[1]; [19],20
same,"Plant response rating, Ryegrass, Italian",[1]; [20],50
same,"Plant response rating, Galium",[2]; [19],70
same,"Plant response rating, Galium",[2]; [20],90
same,"Plant response rating, Ryegrass, Italian",[3]; 31 g ai/ha,30
same,"Ryegrass, Italian plant response rating",[3]; 125 g ai/ha,90
same,"Plant response rating, Wheat",[4]; [19],10
same,"Plant response rating, Wheat",[4]; [20],50
same,"Plant response rating, Barnyardgrass",[5]; 31 g ai/ha,10
same,Barnyardgrass plant response rating,[5]; 125 g ai/ha,90
same,"Plant response rating, Corn",corn (Zea mays); [19],0
same,"Plant response rating, Corn",corn (Zea mays); [20],20
same,"Plant response rating, Ragweed",[6]; [19],10
same,"Plant response rating, Ragweed",[6]; [20],40
same,"Plant response rating, Barnyardgrass",[7]; [19],20
same,"Plant response rating, Barnyardgrass",[7]; [20],60
same,"Plant response rating, Foxtail, Giant",[8]; [19],0
same,"Plant response rating, Foxtail, Giant",[8]; [20],30
same,"Plant response rating, Ragweed",[9]; 31 g ai/ha,0
same,Ragweed plant response rating,[9]; 125 g ai/ha,30
same,"Plant response rating, Kochia",kochia (Bassia scoparia) [10]; 31 g ai/ha,0
same,Kochia plant response rating,kochia (Bassia scoparia) [10]; 125 g ai/ha,60
same,"Plant response rating, Pigweed",[11]; 31 g ai/ha,100
same,Pigweed plant response rating,[11]; 125 g ai/ha,100
same,"Plant response rating, Kochia",kochia (Bassia scoparia) [12]; [19],10
same,"Plant response rating, Kochia",kochia (Bassia scoparia) [12]; [20],50
same,"Plant response rating, Pigweed",[13]; [19],50
same,"Plant response rating, Pigweed",[13]; [20],80
same,"Plant response rating, Blackgrass",[14]; [19],0
same,"Plant response rating, Blackgrass",[14]; [20],20
same,"Plant response rating, Foxtail, Giant",[15]; 31 g ai/ha,50
same,"Foxtail, Giant plant response rating",[15]; 125 g ai/ha,100
COC1CCN(C(=O)c2cc(NS(=O)(=O)C(F)(F)F)c(Cl)cc2C)CC1 [Compound 246],"Plant response rating, Ryegrass, Italian",[1]; [16],0
same,"Plant response rating, Ryegrass, Italian",[1]; [17],10
same,"Plant response rating, Galium",[2]; [16],90
same,"Plant response rating, Galium",[2]; [17],90
same,"Plant response rating, Ryegrass, Italian",[3]; 125 g ai/ha,70
same,"Ryegrass, Italian plant response rating",[3]; 500 g ai/ha,100
same,"Plant response rating, Wheat",[4]; [16],20
same,"Plant response rating, Wheat",[4]; [17],60
same,"Plant response rating, Barnyardgrass",[5]; 125 g ai/ha,40
same,Barnyardgrass plant response rating,[5]; 500 g ai/ha,100
same,"Plant response rating, Corn",corn (Zea mays); [16],20
same,"Plant response rating, Corn",corn (Zea mays); [17],40
same,"Plant response rating, Ragweed",[6]; [16],90
same,"Plant response rating, Ragweed",[6]; [17],90
same,"Plant response rating, Barnyardgrass",[7]; [16],70
same,"Plant response rating, Barnyardgrass",[7]; [17],90
same,"Plant response rating, Foxtail, Giant",[8]; [16],60
same,"Plant response rating, Foxtail, Giant",[8]; [17],90
same,"Plant response rating, Ragweed",[9]; 125 g ai/ha,80
same,Ragweed plant response rating,[9]; 500 g ai/ha,90
same,"Plant response rating, Kochia",kochia (Bassia scoparia) [10]; 125 g ai/ha,40
same,Kochia plant response rating,kochia (Bassia scoparia) [10]; 500 g ai/ha,90
same,"Plant response rating, Pigweed",[11]; 125 g ai/ha,90
same,Pigweed plant response rating,[11]; 500 g ai/ha,100
same,"Plant response rating, Kochia",kochia (Bassia scoparia) [12]; [16],20
same,"Plant response rating, Kochia",kochia (Bassia scoparia) [12]; [17],80
same,"Plant response rating, Pigweed",[13]; [16],90
same,"Plant response rating, Pigweed",[13]; [17],90
same,"Plant response rating, Blackgrass",[14]; [16],20
same,"Plant response rating, Blackgrass",[14]; [17],0
same,"Plant response rating, Foxtail, Giant",[15]; 125 g ai/ha,90
same,"Foxtail, Giant plant response rating",[15]; 500 g ai/ha,100
